Experimental data from the supplement of paper PMC10307832.

compound: C(C(=O)C(=O)O)Br [Bromopyruvate] + Nc1nc2[nH]cc(CCc3ccc(C(=O)N[C@@H](CCC(=O)O)C(=O)O)cc3)c2c(=O)[nH]1 [Pemetrexed] (partner 0.2 µM); test: relative viability (nuclei count vs DMSO), 5 days (fraction); higher = more cells survive; details: first compound 1 µM
Summary of the method: (§1)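 Lung cancer cell lines in 1536-well plates were dosed by pin tool the day after seeding, either with one drug alone or with a fixed anchor-drug dose plus five library-drug doses (not always all listed) in √10 steps. After 5 days, cells were fixed and their nuclei stained in one step (final 0.05% Triton X-100, 1% formaldehyde, 1 ug/ml Hoechst), then counted on 4× images. Relative viability is the nuclei count in treated wells divided by that in vehicle wells. Values are medians of duplicate plates.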

Cell Line | relative viability
NCI-H522 | 0.902
NCI-H838 | 0.244
NCI-H1650 | 0.39
NCI-H2009 | 1.01
NCI-H1993 | 0.629
PC-14 | 0.141
LCLC-103H | 0.468
NCI-H596 | 0.546
NCI-H2228 | 0.343
EMC-BAC-2 | 0.422
NCI-H2087 | 0.658
HCC-366 | 0.17
NCI-H1666 | 0.834
NCI-H647 | 0.17
LK-2 | 0.346
NCI-H2126 | 0.702
NCI-H2342 | 0.848
SK-MES-1 | 0.999
H3255 | 0.558

Cell Line | relative viability
COR-L23 | 0.184
COR-L 105 | 1.25
LOU-NH91 | 0.402
ChaGo-K-1 | 0.266
NCI-H2170 | 0.277
NCI-H3122 | 0.209
HOP-62 | 0.302
HCC-44 | 0.621
SW 900 | 0.487
LU99A | 0.178
BEN | 0.87
HARA | 0.275
NCI-H1648 | 0.661
NCI-H1395 | 0.978
NCI-H1792 | 0.904
NCI-H1793 | 0.91
NCI-H1563 | 0.815
NCI-H1944 | 0.576
NCI-H358 | 0.147

same assay, conditions: first compound 3.162 µM

Cell Line | relative viability
NCI-H522 | 1.25
NCI-H838 | 0.274
NCI-H1650 | 0.435
NCI-H2009 | 1.04
NCI-H1993 | 0.649
PC-14 | 0.143
LCLC-103H | 0.465
NCI-H596 | 0.522
NCI-H2228 | 0.339
EMC-BAC-2 | 0.45
NCI-H2087 | 0.745
HCC-366 | 0.174
NCI-H1666 | 0.896
NCI-H647 | 0.162
LK-2 | 0.23
NCI-H2126 | 0.636
NCI-H2342 | 0.779
SK-MES-1 | 0.974
H3255 | 0.535

Cell Line | relative viability
COR-L23 | 0.194
COR-L 105 | 1.19
LOU-NH91 | 0.371
ChaGo-K-1 | 0.254
NCI-H2170 | 0.27
NCI-H3122 | 0.193
HOP-62 | 0.321
HCC-44 | 0.591
SW 900 | 0.463
LU99A | 0.21
BEN | 0.656
HARA | 0.232
NCI-H1648 | 0.813
NCI-H1395 | 0.917
NCI-H1792 | 0.997
NCI-H1793 | 1.18
NCI-H1563 | 0.717
NCI-H1944 | 0.707
NCI-H358 | 0.145

same assay, conditions: first compound 10 µM

Cell Line | relative viability
NCI-H522 | 1.24
NCI-H838 | 0.242
NCI-H1650 | 0.37
NCI-H2009 | 0.936
NCI-H1993 | 0.633
PC-14 | 0.14
LCLC-103H | 0.472
NCI-H596 | 0.55
NCI-H2228 | 0.337
EMC-BAC-2 | 0.451
NCI-H2087 | 0.651
HCC-366 | 0.146
NCI-H1666 | 1.02
NCI-H647 | 0.156
LK-2 | 0.312
NCI-H2126 | 0.66
NCI-H2342 | 0.847
SK-MES-1 | 0.941
H3255 | 0.573

Cell Line | relative viability
COR-L23 | 0.195
COR-L 105 | 1.1
LOU-NH91 | 0.366
ChaGo-K-1 | 0.261
NCI-H2170 | 0.249
NCI-H3122 | 0.186
HOP-62 | 0.326
HCC-44 | 0.555
SW 900 | 0.555
LU99A | 0.169
BEN | 0.833
NCI-H1648 | 0.689
NCI-H1395 | 0.884
NCI-H1792 | 0.699
NCI-H1793 | 0.989
NCI-H1563 | 0.823
NCI-H1944 | 0.625
NCI-H358 | 0.164

same assay, conditions: first compound 31.62 µM

Cell Line | relative viability
NCI-H522 | 1.07
NCI-H838 | 0.232
NCI-H1650 | 0.406
NCI-H2009 | 0.868
NCI-H1993 | 0.605
PC-14 | 0.154
LCLC-103H | 0.446
NCI-H596 | 0.48
NCI-H2228 | 0.357
EMC-BAC-2 | 0.479
NCI-H2087 | 0.72
HCC-366 | 0.203
NCI-H1666 | 0.859
NCI-H647 | 0.184
LK-2 | 0.237
NCI-H2126 | 0.677
NCI-H2342 | 0.636
SK-MES-1 | 0.94
H3255 | 0.536

Cell Line | relative viability
COR-L23 | 0.183
COR-L 105 | 1
LOU-NH91 | 0.402
ChaGo-K-1 | 0.27
NCI-H2170 | 0.258
NCI-H3122 | 0.183
HOP-62 | 0.356
HCC-44 | 0.616
SW 900 | 0.446
LU99A | 0.202
BEN | 0.62
HARA | 0.219
NCI-H1648 | 0.651
NCI-H1395 | 0.847
NCI-H1792 | 0.894
NCI-H1793 | 0.906
NCI-H1563 | 0.674
NCI-H1944 | 0.656
NCI-H358 | 0.17

same assay, conditions: first compound 100 µM

Cell Line | relative viability
NCI-H522 | 1.11
NCI-H838 | 0.245
NCI-H1650 | 0.266
NCI-H2009 | 1.11
NCI-H1993 | 0.582
PC-14 | 0.123
LCLC-103H | 0.48
NCI-H596 | 0.59
NCI-H2228 | 0.341
EMC-BAC-2 | 0.453
NCI-H2087 | 0.567
HCC-366 | 0.2
NCI-H1666 | 0.855
NCI-H647 | 0.177
LK-2 | 0.261
NCI-H2126 | 0.695
NCI-H2342 | 0.74
SK-MES-1 | 1.01
H3255 | 0.597

Cell Line | relative viability
COR-L23 | 0.202
COR-L 105 | 0.532
LOU-NH91 | 0.443
ChaGo-K-1 | 0.259
NCI-H2170 | 0.626
NCI-H3122 | 0.192
HOP-62 | 0.207
HCC-44 | 0.638
SW 900 | 0.472
LU99A | 0.165
BEN | 0.753
HARA | 0.271
NCI-H1648 | 0.728
NCI-H1395 | 0.928
NCI-H1792 | 0.983
NCI-H1793 | 1.16
NCI-H1563 | 0.757
NCI-H1944 | 0.63
NCI-H358 | 0.183

compound: CC(O)(CS(=O)(=O)c1ccc(F)cc1)C(=O)Nc1ccc(C#N)c(C(F)(F)F)c1 [Bicalutamide] + CC(C)C[C@H](NC(=O)[C@H](Cc1ccccc1)NC(=O)c1cnccn1)B(O)O [Bortezomib] (partner 0.002 µM); test: as above; details: first compound 0.08 µM
Summary of the method: as §1

Cell Line | relative viability
NCI-H838 | 0.715
NCI-H1650 | 0.172
EBC-1 | 0.584
NCI-H1703 | 0.374
NCI-H2009 | 1.26
PC-14 | 0.923
LCLC-103H | 1.1
NCI-H596 | 1.19
NCI-H2228 | 1.07
EMC-BAC-2 | 1.04
NCI-H2087 | 0.785
Calu-6 | 1.08
HCC-366 | 1.04
NCI-H1666 | 0.808
NCI-H647 | 0.973
NCI-H2126 | 1.12
H3255 | 0.798

Cell Line | relative viability
COR-L23 | 1.09
COR-L 105 | 0.761
IA-LM | 0.819
LOU-NH91 | 0.53
ChaGo-K-1 | 0.973
NCI-H3122 | 1.03
HOP-62 | 0.683
HCC-44 | 0.936
LU99A | 0.995
BEN | 0.847
HARA | 1.15
NCI-H727 | 0.884
NCI-H1299 | 0.974
NCI-H1792 | 0.983
NCI-H1563 | 0.973
ABC-1 | 0.311

same assay, conditions: first compound 0.253 µM

Cell Line | relative viability
NCI-H838 | 0.626
NCI-H1650 | 0.204
EBC-1 | 0.537
NCI-H1703 | 0.427
NCI-H2009 | 1.03
NCI-H1993 | 0.897
PC-14 | 0.974
LCLC-103H | 1.08
NCI-H596 | 1.11
NCI-H2228 | 1.11
EMC-BAC-2 | 0.968
NCI-H2087 | 0.825
Calu-6 | 0.857
HCC-366 | 1.02
NCI-H1666 | 0.802
NCI-H647 | 0.96
NCI-H2126 | 1.09

Cell Line | relative viability
H3255 | 0.632
COR-L23 | 0.862
COR-L 105 | 0.87
IA-LM | 0.86
LOU-NH91 | 0.493
ChaGo-K-1 | 1.05
NCI-H3122 | 1.03
HOP-62 | 0.527
HCC-44 | 0.953
LU99A | 0.964
BEN | 0.667
HARA | 1.02
NCI-H727 | 0.709
NCI-H1299 | 1.05
NCI-H1792 | 0.957
NCI-H1563 | 0.775
ABC-1 | 0.232

same assay, conditions: first compound 0.8 µM

Cell Line | relative viability
NCI-H838 | 1.28
NCI-H1650 | 0.192
EBC-1 | 0.592
NCI-H1703 | 0.317
NCI-H2009 | 1.16
NCI-H1993 | 1.31
PC-14 | 0.827
LCLC-103H | 1.15
NCI-H596 | 1.01
NCI-H2228 | 1.31
EMC-BAC-2 | 1.15
NCI-H2087 | 1.04
Calu-6 | 1.05
HCC-366 | 1.43
NCI-H1666 | 1
NCI-H647 | 1.4
NCI-H2126 | 1.08

Cell Line | relative viability
H3255 | 0.783
COR-L23 | 1.13
COR-L 105 | 0.98
IA-LM | 0.966
LOU-NH91 | 0.441
ChaGo-K-1 | 1.17
NCI-H3122 | 0.988
HOP-62 | 0.725
HCC-44 | 0.961
LU99A | 1.24
BEN | 1.18
HARA | 1.14
NCI-H727 | 0.968
NCI-H1299 | 0.969
NCI-H1792 | 0.983
NCI-H1563 | 0.885
ABC-1 | 0.328

same assay, conditions: first compound 2.53 µM

Cell Line | relative viability
NCI-H838 | 0.624
NCI-H1650 | 0.175
EBC-1 | 0.477
NCI-H1703 | 0.204
NCI-H2009 | 0.88
NCI-H1993 | 1.12
PC-14 | 0.89
LCLC-103H | 1
NCI-H596 | 1.04
NCI-H2228 | 1.11
EMC-BAC-2 | 0.929
NCI-H2087 | 0.75
Calu-6 | 0.922
HCC-366 | 1.04
NCI-H1666 | 0.949
NCI-H647 | 0.903
NCI-H2126 | 1.06
H3255 | 0.698
COR-L23 | 0.926
COR-L 105 | 0.501
IA-LM | 0.837
LOU-NH91 | 0.523
ChaGo-K-1 | 0.864
NCI-H3122 | 1.03
HOP-62 | 0.92
